{"source": "patent US7041677B2", "about": "“Use of monochloroflosequinan in the treatment of sexual dysfunction” (R.T. Alamo Ventures I, LLC, priority 2002, dated 2006)", "key": {"PDE3": {"target": "T1, PDE3 (Homo sapiens, UniProt Q14432)", "T1 construct": "PDE3 partially purified from human platelets was used; from tissue; host or cells: human platelets", "T1 sequence (Q14432 whole entry)": "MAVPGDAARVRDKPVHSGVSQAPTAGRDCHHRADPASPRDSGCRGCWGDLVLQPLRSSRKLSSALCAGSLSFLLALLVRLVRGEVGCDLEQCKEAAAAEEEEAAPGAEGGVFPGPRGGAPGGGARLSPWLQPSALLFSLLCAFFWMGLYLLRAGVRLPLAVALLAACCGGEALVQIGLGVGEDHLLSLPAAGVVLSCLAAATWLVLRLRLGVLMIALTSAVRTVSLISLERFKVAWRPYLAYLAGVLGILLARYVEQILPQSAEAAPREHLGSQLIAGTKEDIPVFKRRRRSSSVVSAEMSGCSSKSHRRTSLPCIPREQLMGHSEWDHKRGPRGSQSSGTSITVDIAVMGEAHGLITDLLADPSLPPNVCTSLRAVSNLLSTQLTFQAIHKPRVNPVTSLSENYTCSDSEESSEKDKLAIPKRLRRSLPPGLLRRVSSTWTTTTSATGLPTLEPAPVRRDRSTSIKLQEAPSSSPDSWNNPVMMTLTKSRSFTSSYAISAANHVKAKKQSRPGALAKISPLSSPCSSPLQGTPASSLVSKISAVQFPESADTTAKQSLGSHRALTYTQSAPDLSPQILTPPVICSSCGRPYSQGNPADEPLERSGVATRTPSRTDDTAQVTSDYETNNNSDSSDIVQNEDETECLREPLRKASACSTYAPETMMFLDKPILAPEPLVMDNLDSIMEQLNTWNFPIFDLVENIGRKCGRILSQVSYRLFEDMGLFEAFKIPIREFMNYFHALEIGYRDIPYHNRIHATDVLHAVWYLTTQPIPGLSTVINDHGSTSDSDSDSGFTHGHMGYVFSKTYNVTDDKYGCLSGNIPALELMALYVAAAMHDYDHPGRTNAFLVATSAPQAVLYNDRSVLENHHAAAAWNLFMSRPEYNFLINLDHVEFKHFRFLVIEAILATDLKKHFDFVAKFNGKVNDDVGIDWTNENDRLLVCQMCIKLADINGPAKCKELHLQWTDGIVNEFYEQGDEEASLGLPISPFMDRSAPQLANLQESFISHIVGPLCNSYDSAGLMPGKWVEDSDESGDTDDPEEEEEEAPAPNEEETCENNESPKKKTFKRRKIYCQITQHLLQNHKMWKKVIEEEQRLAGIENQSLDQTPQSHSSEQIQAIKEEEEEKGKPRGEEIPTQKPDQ", "assay": "PDE3 enzyme inhibition assay", "type": "biochemical", "conditions": "1% DMSO vehicle", "text": "In this example, a racemic mixture of monochloroflosequinan and the sulfone derivative of monochloroflosequinan were independently subjected to biochemical enzyme assays to determine their respective percent inhibition of a variety of phosphodiesterases (PDE1-PDE6). The methods used have been adapted from those described in the scientific literature, see Hidaka and Asano “Human blood platelet 3′:5′ cyclic nucleotide phosphodiesterase. Isolation of low-Km and high Km phosphodiesterase.” Biochem. Biophys. Acta 429:485 (1976); Nicholoson et al. “Differential modulation of tissue function and therapeutic potential of selective inhibitors of cyclic nucleotide phosphodiesterase isoenzymes” Trends Pharmacol. Sci. 12:19 (1991); Cortijo et al. “Investigation into the role of phosphodiesterase IV in bronchorelaxation, including studies with hyman bronchus.” Br. J. Pharmacol. 108:562 (1993); Baehr et al. “Isolation and characterization of cGMP phosphodiesterase from bovine rod outer segments.” J. Biol. Chem. 254:11669 (1979) and Gillespie and Beavo “Inhibition and stimulation of photoreceptor phosphodiesterase by dipyridamole and M&B 22,948” Molecular Pharm. 36:773 (1989). A brief summary of the conditions for each enzyme assay is provided below: • PDE1: PDE1 partially purified from bovine heart was used. The compounds were independently incubated with 13 μg PDE1 enzyme, 1.01 μM [^3H]cAMP+cAMP and CaCl2/calmodulin in Tris buffer pH 7.5 for 20 minutes at either 25° C. or 30° C. The reaction was terminated by boiling for 2 minutes, and the resulting AMP was converted to adenosine by addition of 10 mg/ml snake venom nucleotidase and further incubation at 30° C. for 10 minutes. Unhydrolyzed cAMP was bound to AGI-X2 resin, and the remaining [^3H]adenosine in the aqueous phase was quantitated by scintillation counting. • PDE2: PDE2 partially purified from human platelets was used. The compounds were independently incubated with 23 μg PDE2 enzyme, 25.1 μM [^3H]cAMP+cAMP in Tris buffer pH 7.5 for 20 minutes at either 25° C. or 30° C. […] Unhydrolyzed cAMP was bound to AGI-X2 resin, and the remaining [^3H]adenosine in the aqueous phase was quantitated by scintillation counting. • PDE3: PDE3 partially purified from human platelets was used. […] Unhydrolyzed cAMP was bound to AGI-X2 resin, and the remaining [^3H]adenosine in the aqueous phase was quantitated by scintillation counting. • PDE4: PDE4 partially purified from human U-937 pronocytic cells was used. […] Unhydrolyzed cAMP was bound to AGI-X2 resin, and the remaining [^3H]adenosine in the aqueous phase was quantitated by scintillation counting. • PDE5: PDE5 partially purified from human platelets was used. […]"}, "PDE1": {"target": "T2, PDE1 (Bos taurus, UniProt P14100)", "T2 construct": "PDE1 partially purified from bovine heart was used; from tissue; host or cells: bovine heart", "assay": "PDE1 enzyme inhibition assay", "type": "biochemical, bovine", "conditions": "1% DMSO vehicle", "text": "In this example, a racemic mixture of monochloroflosequinan and the sulfone derivative of monochloroflosequinan were independently subjected to biochemical enzyme assays to determine their respective percent inhibition of a variety of phosphodiesterases (PDE1-PDE6). The methods used have been adapted from those described in the scientific literature, see Hidaka and Asano “Human blood platelet 3′:5′ cyclic nucleotide phosphodiesterase. Isolation of low-Km and high Km phosphodiesterase.” Biochem. Biophys. Acta 429:485 (1976); Nicholoson et al. “Differential modulation of tissue function and therapeutic potential of selective inhibitors of cyclic nucleotide phosphodiesterase isoenzymes” Trends Pharmacol. Sci. 12:19 (1991); Cortijo et al. “Investigation into the role of phosphodiesterase IV in bronchorelaxation, including studies with hyman bronchus.” Br. J. Pharmacol. 108:562 (1993); Baehr et al. “Isolation and characterization of cGMP phosphodiesterase from bovine rod outer segments.” J. Biol. Chem. 254:11669 (1979) and Gillespie and Beavo “Inhibition and stimulation of photoreceptor phosphodiesterase by dipyridamole and M&B 22,948” Molecular Pharm. 36:773 (1989). A brief summary of the conditions for each enzyme assay is provided below: • PDE1: PDE1 partially purified from bovine heart was used. The compounds were independently incubated with 13 μg PDE1 enzyme, 1.01 μM [^3H]cAMP+cAMP and CaCl2/calmodulin in Tris buffer pH 7.5 for 20 minutes at either 25° C. or 30° C. The reaction was terminated by boiling for 2 minutes, and the resulting AMP was converted to adenosine by addition of 10 mg/ml snake venom nucleotidase and further incubation at 30° C. for 10 minutes. Unhydrolyzed cAMP was bound to AGI-X2 resin, and the remaining [^3H]adenosine in the aqueous phase was quantitated by scintillation counting. • PDE2: PDE2 partially purified from human platelets was used. The compounds were independently incubated with 23 μg PDE2 enzyme, 25.1 μM [^3H]cAMP+cAMP in Tris buffer pH 7.5 for 20 minutes at either 25° C. or 30° C. The reaction was terminated by boiling for 2 minutes, and the resulting AMP was converted to adenosine by addition of 10 mg/ml snake venom nucleotidase and further incubation at 30° C. for 10 minutes. Unhydrolyzed cAMP was bound to AGI-X2 resin, and the remaining [^3H]adenosine in the aqueous phase was quantitated by scintillation counting. • PDE3: PDE3 partially purified from human platelets was used. The compounds were independently incubated with 13 ug PDE3 enzyme and 1.01 μM [^3H]cAMP+cAMP in Tris buffer pH 7.5 for 20 minutes at either 25° C. or 30° C. The reaction was terminated by boiling for 2 minutes, and the resulting AMP was converted to adenosine by addition of 10 mg/ml snake venom nucleotidase and further incubation at 30° C. for 10 minutes. Unhydrolyzed cAMP was bound to AGI-X2 resin, and the remaining [^3H]adenosine in the aqueous phase was quantitated by scintillation counting. • PDE4: PDE4 partially purified from human U-937 pronocytic cells was used. The compounds were independently incubated with 20 μg PDE4 enzyme and 1.01 μM [^3H]cAMP+cAMP in Tris buffer pH 7.5 for 20 minutes at either 25° C. or 30° C. […] Unhydrolyzed cAMP was bound to AGI-X2 resin, and the remaining [^3H]adenosine in the aqueous phase was quantitated by scintillation counting. • PDE5: PDE5 partially purified from human platelets was used. […]"}, "PDE5": {"target": "T3, PDE5 (Homo sapiens, UniProt O76074)", "T3 construct": "PDE5 partially purified from human platelets was used; from tissue; host or cells: human platelets", "assay": "PDE5 enzyme inhibition assay", "type": "biochemical", "conditions": "25° C., 1% DMSO vehicle", "text": "In this example, a racemic mixture of monochloroflosequinan and the sulfone derivative of monochloroflosequinan were independently subjected to biochemical enzyme assays to determine their respective percent inhibition of a variety of phosphodiesterases (PDE1-PDE6). The methods used have been adapted from those described in the scientific literature, see Hidaka and Asano “Human blood platelet 3′:5′ cyclic nucleotide phosphodiesterase. Isolation of low-Km and high Km phosphodiesterase.” Biochem. Biophys. […] Unhydrolyzed cAMP was bound to AGI-X2 resin, and the remaining [^3H]adenosine in the aqueous phase was quantitated by scintillation counting. • PDE2: PDE2 partially purified from human platelets was used. […] Unhydrolyzed cAMP was bound to AGI-X2 resin, and the remaining [^3H]adenosine in the aqueous phase was quantitated by scintillation counting. • PDE3: PDE3 partially purified from human platelets was used. […] Unhydrolyzed cAMP was bound to AGI-X2 resin, and the remaining [^3H]adenosine in the aqueous phase was quantitated by scintillation counting. • PDE4: PDE4 partially purified from human U-937 pronocytic cells was used. […] Unhydrolyzed cAMP was bound to AGI-X2 resin, and the remaining [^3H]adenosine in the aqueous phase was quantitated by scintillation counting. • PDE5: PDE5 partially purified from human platelets was used. […]"}}, "data": [{"compound": "Cn1cc([S+]([O-])CCl)c(=O)c2ccc(F)cc21", "note": "(racemic) [monochloroflosequinan, 3-chloromethylsulfinyl-7-fluoro-1-methyl-4-quinolone]", "values": [{"measurement": "inhibition of PDE3", "setting": "PDE3; 100 uM, 30° C.", "result": "Significant inhibition"}, {"measurement": "inhibition of PDE1", "setting": "PDE1; 100 uM, 30° C.", "result": "Significant inhibition"}]}, {"compound": "Cn1cc([S@+]([O-])CCl)c(=O)c2ccc(F)cc21", "note": "(single isomer, unassigned) [(+)-enantiomer of monochloroflosequinan]", "values": [{"measurement": "inhibition of PDE3", "setting": "PDE3; 200 μM, 25° C.", "result": "greater than 50%"}, {"measurement": "inhibition of PDE1", "setting": "PDE1; 200 μM, 25° C.", "result": "greater than 50%"}, {"measurement": "inhibition of PDE5", "setting": "PDE5; 200 μM", "result": "greater than 50%"}]}, {"compound": "Cn1cc([S@@+]([O-])CCl)c(=O)c2ccc(F)cc21", "note": "(single isomer, unassigned) [(−)-enantiomer of monochloroflosequinan]", "values": [{"measurement": "inhibition of PDE3", "setting": "PDE3; 200 μM, 25° C.", "result": "greater than 50%"}, {"measurement": "inhibition of PDE1", "setting": "PDE1; 200 μM, 25° C.", "result": "greater than 50%"}]}, {"compound": "Cn1cc([S+]([O-])C(Cl)Cl)c(=O)c2ccc(F)cc21", "note": "(stereo not shown) [dichloroflosequinan, 3-dichloromethylsulfinyl-7-fluoro-1-methyl-4-quinolone]", "values": [{"measurement": "inhibition of PDE3", "setting": "PDE3; varying concentrations, 25° C.", "result": "greater than 50%"}, {"measurement": "inhibition of PDE1", "setting": "PDE1; varying concentrations, 25° C.", "result": "greater than 50%"}, {"measurement": "inhibition of PDE5", "setting": "PDE5; varying concentrations", "result": "greater than 50%"}]}]}
